Measured values taken from US9556113B2, “Combination uses of dichloroacetate and oxamate, and their prodrugs, for cancer treatment” (The South Dakota Board of Regents, priority 2014, dated 2017).

Test system: HPV+E6E7 Ras tumor (E6/E7/Ras MOEs cells)
Experiment: Tumor response to cisplatin/radiation therapy (CRT), HPV positive HNSCC mouse model
Assay type: in vivo, C57Bl/6 mice
Conditions: for tumor growth with CRT compared to DCA plus oxamate (FIG. 8A/19): prodrug 7.6 mg/mouse i.p. weekdays, control DCA 6 mg/mouse + oxamate 2 (2.2) mg/mouse, all with CRT
Experimental: FIG. 7 illustrates the effects of DCA plus oxamate on tumor growth (A) or on survival (B) with HPV+ model of HNSCC in wild-type C57Bl/6 mice. All mice received 3 rounds of cisplatin (0.132 mg/mouse) plus radiation (8 Gy/mouse) treatment (Tx) at weekly intervals starting […] after tumor initiation. Mice receiving DCA (6 mg/mouse) plus oxamate (15 mg/mouse) were treated every weekday, starting with the first chemoradiation treatment by i.p. injection.
FIG. 8 illustrates a comparison of prodrugs to DCA plus oxamate on tumor growth (A) or on survival (B) with HPV+ model of HNSCC in wild-type C57Bl/6 mice. All mice received 3 rounds of CRT [cisplatin (0.132 mg/mouse) plus radiation (8 Gy/mouse) treatment (Tx) at weekly intervals starting 11 days after tumor initiation]. Mice receiving DCA (6 mg/mouse) plus oxamate (2.2 mg/mouse) were treated every weekday starting with the first chemoradiation treatment by i.p. injection. Mice treated with AT-N4-001 or AT-N4-002 prodrugs (7.6 mg/mouse) were treated on the same schedule as mice treated with DCA+oxamate.
FIG. 18. The effects of DCA, oxamate, DCA plus oxamate on the responses of HPV+E6E7 Ras tumor to CRT. One million E6/E7/Ras MOEs cells were injected subcutaneously into the rear leg of wild-type C57Bl/6 mice. After 11 days, a treatment with DCA (6 mg/mouse) and oxamate (15 mg/mouse) were injected daily by i.p. on weekdays for the remainder of the experiment. All mice received three rounds of treatment with CRT (0.132 mg/mouse cisplatin and 8 Gy radiation, weekly starting at day 11). Tumor volume is mm^3.
FIG. 19 depicts the effects of DCA plus oxamate vs the effects of prodrug 1 or prodrug 2 on the responses of HPV+E6E7 Ras tumor to CRT. Tumors were initiated by injecting 0.5×10^6 E6/E7/Ras MOEs cells. After 11 days, a treatment with DCA (6 mg/mouse) plus oxamate (2 mg/mouse), or prodrug 1 (7.6 mg/mouse), or prodrug 2 (7.6 mg/mouse) was initiated daily by i.p. on weekdays. The doses of DCA and oxamate were equal molar equivalents as would be released from the prodrugs. All mice received three rounds of treatment with CRT (0.132 mg/mouse cisplatin and 8 Gy radiation, weekly starting at day 11). Tumor volume is in mm^3.
The effects of various treatments on tumor responses were carried out by examining whether the treatment could improve tumor's response to CRT with a HPV positive HNSCCs mouse model. CRT is a standard treatment for HPV-positive HNSCC in the clinic (46). […] Applicants also used this model to investigate the effects of lactate on CRT-induced immune-mediated cancer clearance (46) and DCA's effect on the tumor's response to CRT (unpublished data). The literature reported dosages of DCA and oxamate were used (6,23,52,53)(41).
To study the effects of the prodrugs on tumor growth in vivo, C57Bl/6 immune-competent mice implanted with E6/E7/Ras MOEs cells were used as described previously (46). All experiments were performed in accordance with institutional and national guidelines and regulations with the protocol approved by the Animal Care and Use Committee at Sanford Research. Briefly, 1×10^6 tumor HPV+HNSCC cells were injected into the right subcutaneous flank of syngeneic male C57Bl/6 mice. Eleven days after tumor initiation, treatment was initiated daily on weekdays by i.p. injection of vehicle, DCA, Oxamate, DCA+oxamate, prodrug 1, or prodrug 2. All mice received three rounds of treatment with cisplatin/radiation therapy (CRT: 0.132 mg/mouse cisplatin and 8 Gy radiation, weekly starting at day 11). Tumor dimensions were measured weekly to monitor growth. Mice with tumors reaching a volume of 3000 mm^3 or becoming substantially emaciated were euthanized.
To study the effects of the new prodrugs on tumor growth in vivo, C57Bl/6 immune-competent mice were used. Tumors were established on the right flank of the leg. After 11 days, treatment was initiated with daily i.p. injection of vehicle, AT-N4-001, or AT-N4-002. […]

Structure (SMILES) | long-term survival (FIG. 8B) (CRT + 7.6 mg/mouse i.p.) | tumor growth with CRT compared to DCA plus oxamate (FIG. 8A/19) | tumor growth with CRT compared to DCA plus oxamate (FIG. 8A/19) (listed as Prodrug 2) | tumor growth with CRT compared to DCA plus oxamate (FIG. 8A/19) (listed as prodrug 1)
NC(=O)C(=O)OCC(COC(=O)C(Cl)Cl)OC(=O)C(Cl)Cl (centres unmarked) [AT-N4-002, 3-(2-amino-2-oxoacetoxy)propane-1,2-diyl bis(2,2-dichloroacetate)] | ~25% | reduced average tumor growth compared to the control during the entire experiment | more effective than DCA plus oxamate during the entire experiment | –
NC(=O)C(=O)OC(COC(=O)C(Cl)Cl)COC(=O)C(Cl)Cl [AT-N4-001, 2-(2-Amino-2-oxoacetoxy)propane-1,3-diyl bis(2,2-dichloroacetate)] | – | initially reduced tumor growth compared to CRT+DCA+oxamate control, but this was not maintained over longer times | – | about equally potent as that of the combination
